Reference: US9980976B2, “Use of REDD1 inhibitors to dissociate therapeutic and adverse atrophogenic effects of glucocorticoid receptor agonists” (Northwestern University, priority 2015, dated 2018)

Key:
human skin = test: Skin atrophy in human volunteers treated with topical glucocorticoid; format: in vivo; conditions: 0.05% cream daily, 2-week treatment
Method: (§1) Glucocorticoid CBP was applied topically as a 0.05% cream to the skin of right arm of healthy human volunteers (age 32-65) once or every 24 h for 2 weeks. Untreated left arm skin was used as control. Whole human skin samples were used for the molecular biological studies.
(§2) Quantification of the epidermal width and number of basal keratinocytes (as the readouts for skin atrophy and hypoplasia of raft epidermis) was performed in dorsal skin and ORC sections stained with H&E. The number of dermal cells was determined on sections stained with Masson's trichrome in the upper (papillary) dermis that is distinguishable from the lower (reticular) dermis (Driskell et al, 2013). At least 10 individual fields per slide with at least three samples in each experimental group were counted using Axioplan2 microscope software (Carl Zeiss). All measurements are presented as % to corresponding control.

REDD1 [1] = test: REDD1 mRNA expression in human skin (RT-PCR); format: in vivo; conditions: human skin treated with CBP 0.05% cream for 24 h-2 weeks
Method: as §1
Total RNA from murine epidermis, whole human skin, and cell cultures was isolated with RiboPure kit (Ambion, Life Technologies, Grand Island, N.Y., USA). Total RNA from murine s.c. adipose was isolated with RNeasy Lipid Tissue Kit (Qiagen, Valencia, Calif., USA). The RNA samples were treated with TURBOT™ DNase (Ambion). The gene expression was assessed using semi-quantitative two-step RT-PCR and quantitative Q-PCR. Reverse transcription was performed using 1 μg RNA, random hexamers, and M-MLV reverse transcriptase (Invitrogen, Life Technologies), according to manufacturer instructions. The gene-specific primers were designed with NCBI Primer-BLAST (data not shown, see Baida et al., EMBO, 2015, at Supplementary Table S4). Q-PCR with SYBR Green detection was performed on the Applied Biosystems® 7000 Real-Time PCR instrument (Life Technologies). […] For semi-quantitative PCRs, Taq DNA polymerase (Promega) was used, and PCR products were separated on 1.5% agarose gel and visualized using automated imaging system (Bio-Rad, Hercules, Calif., USA). […]

[2] = test system: organotypic raft cultures of primary human epidermal keratinocytes (NHEK); test: Hypoplasia/proliferation in 3-D organotypic raft cultures (ORC) of NHEK; format: cell-based; conditions: pGIPZ-infected ORCs, 7-day treatment with CBP 5 μM
Method: (§3) Three-dimensional (3-D) organotypic raft cultures (ORC) of human epidermis were made as described in Getsios et al (2009). Briefly, neonatal human epidermal keratinocytes (NHEK) were infected with shRNA- and pGIPZ-expressing lentiviruses followed, 48 h later, by selection for puromycin (2 μg/ml) resistance. Selected keratinocyte cultures were reseeded onto collagen gels with embedded J2-3T3 fibroblasts and cultured at the air-liquid interface as previously described for 3 days to allow the initial phase of epidermis formation. The standard ORC medium contains high 5×10^−7 M hydrocortisone. […]
as §2, with “All measurements are presented as % to corresponding control.” left out
The numbers of BrdU+, p63+, and total number of basal keratinocytes were evaluated in 10 fields of view in each skin/ORC sample under the microscope. […]

REDD1 [3] = test: REDD1 expression in organotypic raft cultures (Q-PCR, Western blot); format: cell-based, human; conditions: control pGIPZ ORCs, short-term (6 h) and chronic (7 days) CBP
Method: as §3, with “hydrocortisone. In our experiments, ORC were cultured in the medium with 10^−8 M hydrocortisone during first 3 days and then were treated with glucocorticoid CBP (5×10^−6 M) or vehicle control (0.05% DMSO) for 7 days. Rafts were treated with BrdU (10^−7 M) 1 h before harvesting and fixed in formalin.” for “hydrocortisone.”
Total RNA from murine epidermis, whole human skin, and cell cultures was isolated with RiboPure kit (Ambion, Life Technologies, Grand Island, N.Y., USA). […] The gene expression was assessed using semi-quantitative two-step RT-PCR and quantitative Q-PCR. […] For semi-quantitative PCRs, Taq DNA polymerase (Promega) was used, and PCR products were separated on 1.5% agarose gel and visualized using automated imaging system (Bio-Rad, Hercules, Calif., USA). […]

GR = conditions: Schäcke et al, 2009; cited from earlier work

Compound	negative effect on basal keratinocytes (compared with FA-treated mice) (human skin)	REDD1 mRNA (REDD1 [1])	decrease in number and proliferation (BrdU incorporation) of basal keratinocytes [2]	REDD1 mRNA and protein (REDD1 [3])	anti-inflammatory effect (GR)	skin atrophy (GR)
CCC(=O)O[C@]1(C(=O)CCl)[C@@H](C)C[C@H]2[C@@H]3CCC4=CC(=O)C=C[C@]4(C)[C@@]3(F)[C@@H](O)C[C@@]21C [CBP, clobetasol propionate]	less pronounced	strongly up-regulated	25-40%	induced REDD1 mRNA and protein	–	–
Cc1ccc2c(NC[C@](O)(CC(C)(C)c3cc(F)cc4c3OCC4)C(F)(F)F)cccc2n1 [ZK245186/mapracorat]	–	–	–	–	preserve the anti-inflammatory effect of glucocorticoids	do not induce skin atrophy
